Measured values taken from US12296018B2, “Albumin binding peptide-drug (AlBiPeD) conjugates and methods of making and using same” (priority 2018, dated 2025).
Values joined by “and” are separate entries in the source; they are usually repeats but may differ in a detail not shown here. Identical values can stand only once.

What was measured:
[1] = molecular target: T1, human serum albumin (HSA) (Homo sapiens, UniProt P02768); assay: Native-PAGE mobility shift with HSA; assay type: binding; conditions: 1:1 molar ratio
T1 construct: purchased Sigma-Aldrich (St. Louis, MO)
Experimental: (§1) The gel was stained with SimplyBlue stain according to the manufacturer's instructions and imaged using the Gel Doc imaging system (Bio-Rad, Hercules, CA). Isothermal titration calorimetry was done using a standard volume Nano ITC from TA instruments (Lindon, Utah). […] The calorimetric data were analyzed by NanoAnalyze software (TA instruments, Lindon, UT) and were fit to an independent binding site model to compute the thermodynamic parameters including dissociation constant (KD), binding stoichiometry (n), enthalpy (ΔH), and entropy (ΔS).

[2] = test system: AsPC-1 pancreatic cancer cells; assay: In vitro cytotoxicity (MTS, 72 h) AsPC-1; assay type: cell-based, human; conditions: 72 h incubation, Dox Equiv. concentration
Experimental: (§2) In vitro cytotoxicity C26 murine colon carcinoma cells and three different pancreatic cancer cell lines, BxPC-3, AsPC-1, and MIA PaCa-2, were used to study the in vitro cytotoxicity of ABD-DOX and Dox. Cells were cultured and grown as monolayers at 37° C. with C02 in a humidified incubator and were passaged at ˜80% confluency using 0.05% trypsin-EDTA (Invitrogen, Carlsbad, CA). C26, BxPC-3, AsPC-1, and MIA PaCa-2 cells were seeded in 96-well plates (5,000 cells/well) and incubated overnight. Three-fold serial dilutions of drug were then added to the wells in triplicate and also to control wells (media with no cells) to correct for the background Dox absorbance. After 72 h treatment, 20 μL MTS reagent was added to each well and was incubated for 3 h at 37° C., and the absorbance at 490 nm was measured using a Victor3 plate reader (Perkin Elmer, Boston, MA). Cell viability (%) was defined as the percentage of the absorbance of the drug-treated cells relative to buffer-treated cells and IC50 values were determined using logistic non-linear regression analysis with GraphPad Prism software. The IC50 was defined as the Dox Equiv. concentration of formulations resulting in 50% growth inhibition compared with a negative control, buffer-treated cells.

[3] = test system: MIA PaCa-2 pancreatic tumor xenografts; assay: In vivo tumor regression, MIA PaCa-2 xenograft model; parameters: species or system nude BALB/c mice
Experimental: (§3) In vivo tumor regression For in vivo tumor implantation, C26 cells at 5×10^5 cells in 30 μL Minimum Essential Medium (MEM) (Invitrogen, Carlsbad, CA) and MIA PaCa-2 cells at 2×10^6 cells in 50 μL 10:90 v/v MEM: Matrigel matrix (Corning Inc, Corning, New York) were inoculated in the right flank of normal and athymic nude BALB/c mice, respectively. Tumor cells were allowed to grow until the tumor volume, calculated as π/6×length×width^2, reached 75-100 mm^3 for C26 tumors and 100-125 mm^3 for MIA PaCa-2 tumors. Tumor bearing mice were then treated with ABD-Dox at 10 and 20 mg Dox Equiv.kg^−1 BW, AlDox at 20 mg Dox Equiv.kg^−1 BW, and free Dox at 10 mgkg^−1 BW. Tumor volumes and body weights were monitored for 100 days after treatment and mice displaying excessive tumor volume (>[…]), body weight loss (>15%), or ill health were euthanized. Tumor growth and survival data were analyzed by GraphPad Prism software. Survival curves were generated with the Kaplan-Meier method and compared with the log-rank (Mantel-Cox) test. Tumor growth data were compared with a paired one-way ANOVA followed by Tukey-Kramer (Tukey's) post-hoc test. P<0.05 was considered as statistically significant.
(§4) For in vivo tumor regression studies, a single dose of ABD-Dox was injected via tail vein at 10 mg Dox Equiv.kg^−1 BW (MTD of free Dox) and 20 mg Dox Equiv.kg^−1 BW (MTD of ABD-Dox) in separate cohorts of BALB/c mice with s.c. C26 tumors or nude mice with s.c. MIA Paca-2 tumors. Free Dox was injected at its MTD of 10 mgkg-1 BW, and AlDox was injected at 20 mg Dox Equiv.kg^−1 BW, a dose that was reported to be safe in previous studies. All animals were injected when the tumors were 75-100 mm; in size for C26 tumors and 100-125 mm^3 for MIA PaCa-2 tumors.

MIA PaCa-2 cells = assay: In vitro cytotoxicity (MTS, 72 h) MIA PaCa-2; assay type: cell-based, human; conditions: 72 h incubation, Dox Equiv. concentration
Experimental: as §2

[4] = molecular target: T2, mouse serum albumin (MSA) (Mus musculus, UniProt P07724); assay: Native-PAGE mobility shift with MSA; assay type: binding; conditions: 1:1 molar ratio
T2 construct: purchased Sigma-Aldrich (St. Louis, MO)
T2 sequence (P07724 25-608): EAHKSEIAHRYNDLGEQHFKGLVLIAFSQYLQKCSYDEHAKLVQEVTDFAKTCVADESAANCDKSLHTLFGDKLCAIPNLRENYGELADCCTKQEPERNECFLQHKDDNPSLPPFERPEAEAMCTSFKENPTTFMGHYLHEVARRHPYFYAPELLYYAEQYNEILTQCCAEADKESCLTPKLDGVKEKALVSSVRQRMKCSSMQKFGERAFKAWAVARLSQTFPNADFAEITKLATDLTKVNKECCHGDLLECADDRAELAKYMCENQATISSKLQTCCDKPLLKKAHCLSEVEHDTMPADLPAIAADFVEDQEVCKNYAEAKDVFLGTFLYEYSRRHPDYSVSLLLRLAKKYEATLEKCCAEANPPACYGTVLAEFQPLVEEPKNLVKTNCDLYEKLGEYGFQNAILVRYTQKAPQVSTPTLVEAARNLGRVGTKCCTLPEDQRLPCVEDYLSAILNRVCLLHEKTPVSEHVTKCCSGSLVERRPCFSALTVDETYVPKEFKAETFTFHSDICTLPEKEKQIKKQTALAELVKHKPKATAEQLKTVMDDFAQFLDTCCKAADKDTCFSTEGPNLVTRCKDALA
Experimental: as §1

[5] = test system: C26 colon carcinoma tumors; assay: In vivo tumor regression, syngeneic C26 model; parameters: species or system BALB/c mice
Experimental: as §3, §4

[6] = single dose 10 mg Dox Equiv.kg^−1 BW
[7] = single dose 20 mg Dox Equiv.kg^−1 BW

With “ABD-Dox (GLAEAKVLANRELDKYGVSDYYKNLINNAKTVEGVKALIDEILAALPCGGCGGCGGCGG)” the “binding to HSA by mobility shift” value [1] was “confirmed binding”, the IC50 [2] was 15.2 µM and the “survival compared with free Dox” value ([3]; 10 mg Dox Equiv.kg^−1 BW) was “No significant difference”. For the same substance, the “survival compared with AlDox” value ([3]; 20 mg Dox Equiv.kg^−1 BW) was “No significant difference”, the “survival compared with free Dox” value ([3]; 20 mg Dox Equiv.kg^−1 BW) was “significantly longer survival” and the “tumor regression compared with AlDox” value ([3]; 20 mg Dox Equiv.kg^−1 BW) was “superior tumor regression efficacy”. The “tumor-free period compared with AlDox” value ([3]; 20 mg Dox Equiv.kg^−1 BW, 100-day span) was “longer tumor-free period”, the “mice showing tumor disappearance” value ([3]; by day 15 after treatment, 20 mg Dox Equiv.kg^−1 BW) was “all” and the “tumor recurrence in tumor-eradicated mice” value ([3]; throughout the 100 day course of study, 20 mg Dox Equiv.kg^−1 BW) was 25%. For the same substance, the IC50 (MIA PaCa-2 cells) was 1.4 µM and 1.41 µM, the “binding to MSA by mobility shift” value [4] was “confirmed binding” and the tumor disappearance ([5]; 10 mg Dox Equiv.kg^−1 BW) was “complete tumor disappearance within 2 weeks”. The “tumor recurrence in mice with eradicated tumors” value ([5]; 10 mg Dox Equiv.kg^−1 BW) was 33%, the “eradication of C26 tumors” value ([5]; 20 mg Dox Equiv.kg^−1 BW) was “incomplete eradication” and the “mice that did not survive over the 100-day course of study” value ([5]; 20 mg Dox Equiv.kg^−1 BW) was 75%. The “recurrence of the primary tumor” value ([5]; 20 mg Dox Equiv.kg^−1 BW) was “without recurrence of the primary tumor in any mice”, the “therapeutic efficacy vs AlDox in terms of overall survival” value ([5]; 20 mg Dox Equiv.kg^−1 BW) was “higher” and the “therapeutic efficacy vs AlDox with respect to tumor regression” value ([5]; 20 mg Dox Equiv.kg^−1 BW) was “equivalent”. The “survival compared with free Dox (10 mgkg^−1 BW)” value [5, 6] was “superior efficacy”, the “tumor regression compared with free Dox (10 mgkg^−1 BW)” value [5, 6] was “superior efficacy” and the “survival compared with free Dox (10 mgkg^−1 BW)” value [5, 7] was “superior efficacy”. For the same substance, the “tumor regression compared with free Dox (10 mgkg^−1 BW)” value [5, 7] was “superior efficacy”.
